Species: Rattus norvegicus
Assay: Open TG-GATES - Regimen: Single
Format: toxicity, organism-based, Sprague-Dawley
Set-up: regimen Single, gender Male, age 6 weeks
Conditions: in vivo, po, route gavage; for gamma-GTP / ALP / ALT / AST / BUN / CRE / Ca / Cl / DBIL / GLC / IP / LDH / Na / PL / RALB / TBIL / TC / TG / TP: tissue Plasma; for APTT / Bas / Eos / Fbg / Hb / Ht / Lym / MCH / MCHC / MCV / Mono / Neu / PT / Plat / RBC / Ret / WBC: tissue Blood; for KIDNEY_L / KIDNEY_R / KIDNEY_TOTAL: tissue Kidney; for LIVER: tissue Liver

## CC(=O)N1CCN(c2ccc(OCC3COC(Cn4ccnc4)(c4ccc(Cl)cc4Cl)O3)cc2)CC1 (stereo not given) [KETOCONAZOLE]
0 mg/kg, 24 h, dose level Control
  gamma-GTP: 1.2 IU/L
10 mg/kg, 3 h, dose level Low
  TERMINAL_BW: 205.2 g
  APTT: 20.8 s
  Bas: 0%
  Eos: 0.8%
  Fbg: 286.4 mg/dL
  Hb: 12.9 g/dL
  Ht: 38.9%
  Lym: 79.2%
  MCH: 21.8 pg
  MCHC: 33.1%
  MCV: 66.1 fL
  Mono: 2%
  Neu: 17.2%
  PT: 16.9 s
  Plat: 122.3 x10_4/uL
  RBC: 590.2 x10_4/ul
  Ret: 8.5%
  WBC: 81.1 x10_2/uL
  KIDNEY_L: 1 g
  KIDNEY_R: 1 g
  KIDNEY_TOTAL: 2 g
  LIVER: 9.7 g
  ALP: 1809.4 IU/L
  ALT: 44.2 IU/L
  AST: 74.2 IU/L
  BUN: 12.6 mg/dL
  CRE: 0.2 mg/dL
  Ca: 10.8 mg/dL
  Cl: 105.4 meq/L
  DBIL: 0 mg/dL
  GLC: 183.6 mg/dL
  IP: 7.7 mg/dL
  LDH: 214.6 IU/L
  Na: 140.8 meq/L
  PL: 138.4 mg/dL
  RALB: 2.9 g/dL
  TBIL: 0.014 mg/dL
  TC: 76.6 mg/dL
  TG: 69.8 mg/dL
  TP: 5.3 g/dL
  gamma-GTP: 1.2 IU/L
10 mg/kg, 6 h, dose level Low
  TERMINAL_BW: 202.4 g
  APTT: 20.6 s
  Bas: 0%
  Eos: 0.6%
  Fbg: 294 mg/dL
  Hb: 13.2 g/dL
  Ht: 39.7%
  Lym: 78.8%
  MCH: 21 pg
  MCHC: 33.2%
  MCV: 63.2 fL
  Mono: 1.4%
  Neu: 18.2%
  PT: 16.5 s
  Plat: 134.3 x10_4/uL
  RBC: 628.6 x10_4/ul
  Ret: 8.4%
  WBC: 66.2 x10_2/uL
  KIDNEY_L: 0.9 g
  KIDNEY_R: 0.9 g
  KIDNEY_TOTAL: 1.8 g
  LIVER: 8.6 g
  ALP: 1453.2 IU/L
  AST: 72.2 IU/L
  BUN: 11 mg/dL
  CRE: 0.2 mg/dL
  Ca: 11 mg/dL
  Cl: 105.8 meq/L
  DBIL: 0.004 mg/dL
  GLC: 172.8 mg/dL
  IP: 9.2 mg/dL
  LDH: 238.6 IU/L
  Na: 142.2 meq/L
  PL: 146.6 mg/dL
  RALB: 3.1 g/dL
  TBIL: 0.028 mg/dL
  TC: 81.4 mg/dL
  TG: 57 mg/dL
  TP: 5.5 g/dL
  gamma-GTP: 1 IU/L
10 mg/kg, 9 h, dose level Low
  TERMINAL_BW: 202 g
  APTT: 21.2 s
  Bas: 0%
  Eos: 0.6%
  Fbg: 303 mg/dL
  Hb: 12.8 g/dL
  Ht: 38.6%
  Lym: 79.8%
  MCH: 20.9 pg
  MCHC: 33.3%
  MCV: 62.8 fL
  Mono: 2%
  Neu: 17%
  PT: 16.2 s
  Plat: 120.8 x10_4/uL
  RBC: 614.6 x10_4/ul
  Ret: 8.5%
  WBC: 64.8 x10_2/uL
  KIDNEY_L: 1 g
  KIDNEY_R: 1 g
  KIDNEY_TOTAL: 1.9 g
  LIVER: 8.9 g
  ALP: 1290.2 IU/L
  ALT: 33 IU/L
  AST: 63.8 IU/L
  BUN: 11.2 mg/dL
  CRE: 0.1 mg/dL
  Ca: 10.6 mg/dL
  Cl: 104.8 meq/L
  DBIL: 0 mg/dL
  GLC: 182.4 mg/dL
  IP: 9.8 mg/dL
  LDH: 211.4 IU/L
  Na: 140.6 meq/L
  PL: 137.8 mg/dL
  RALB: 3.1 g/dL
  TBIL: 0.018 mg/dL
  TC: 80.2 mg/dL
  TG: 52.8 mg/dL
  TP: 5.6 g/dL
  gamma-GTP: 1.2 IU/L
10 mg/kg, 24 h, dose level Low
  TERMINAL_BW: 212.3 g
  APTT: 20.9 s
  Bas: 0%
  Eos: 1%
  Fbg: 300 mg/dL
  Hb: 13 g/dL
  Ht: 38.5%
  Lym: 81%
  MCH: 21.3 pg
  MCV: 63.4 fL
  Mono: 1.8%
  Neu: 15.6%
  PT: 16.5 s
  Plat: 129.6 x10_4/uL
  RBC: 608 x10_4/ul
  Ret: 7.8%
  WBC: 74 x10_2/uL
  KIDNEY_L: 0.9 g
  KIDNEY_R: 0.9 g
  KIDNEY_TOTAL: 1.9 g
  LIVER: 10 g
  ALP: 1553.2 IU/L
  ALT: 44.2 IU/L
  AST: 71 IU/L
  BUN: 16 mg/dL
  CRE: 0.2 mg/dL
  Ca: 10.7 mg/dL
  Cl: 107.2 meq/L
  DBIL: 0 mg/dL
  GLC: 176.6 mg/dL
  IP: 7.1 mg/dL
  LDH: 209 IU/L
  Na: 141.6 meq/L
  PL: 140 mg/dL
  RALB: 3.1 g/dL
  TBIL: 0.006 mg/dL
  TC: 74 mg/dL

Reference: ChEMBL document CHEMBL3885861, “Open TG-GATES”
